≈ marks a conversion by molar mass, not a printed value.
Tests used:
[1] = system: Jurkat cells; test: Suppression of Fas antibody-induced apoptosis, survival rate by MTT method; format: cell-based; conditions: Homo sapiens, Fas antibody CH-11 100 ng/ml, 6 hours, read-out: concentration that inhibited 50% of apoptosis induced by Fas antibody
Procedure: Jurkat cells, an […] T cell leukemia cell line expressing Fas, were used as Fas antibody sensitive cells. The Jurkat cells were cultured in a RPMI medium containing 10% calf serum in an incubator that contained 5% carbon dioxide and was saturated with stream. The Jurkat cells in the logarithmic proliferation period were added with RKB-3564A, RKB-3564B, RKB-3564D, RKB-3564E, and RKB-3564F in a series of dilution, and cultured in the presence of Fas antibody, CH-11 (Medical & Biological Laboratories Co., Ltd., 100 ng/ml) for 6 hours, and the survival rate of the cells was assayed by the MTT method. The survival rate was calculated according to the following formula. Survival rate (%)={[(absorbance in the presence of anti-Fas antibody and the compound)−(absorbance in the presence of anti-Fas antibody and in the absence of the compound)]/[(absorbance in the absence of anti-Fas antibody and the compound)−(absorbance in the presence of anti-Fas antibody and in the absence of the compound)]}×100

[2] = Solubility in solvents

Row | Structure (SMILES) | IC50 [1] | Solubility in methanol or dimethyl sulfoxide ([2]; methanol or dimethyl sulfoxide) | Solubility in n-hexane ([2]; n-hexane)
1 | CC1OC2C3=C(C(=O)C4OC4C3O)C1C1C(C)OC=C3C(O)C4OC4C(=O)C321 (single isomer, unassigned) [RKB-3564A] | 3 to 10 µg/mL (≈ 7.72 to 25.7 µM) | – | –
2 | CC1OC2C3=C(C(=O)C4OC4C3O)C1C1C3=C(C(O)C4OC4C3=O)C2OC1C (centres unmarked) [RKB-3564D] | 3 to 10 µg/mL (≈ 7.72 to 25.7 µM) | easily soluble | Insoluble
3 | CC1OC2C3=C(C(=O)C4OC4C3O)C1C1C(C)OC=C3C(O)C4OC4C(=O)C321 (centres unmarked) [RKB-3564E] | 3 to 10 µg/mL (≈ 7.72 to 25.7 µM) | – | –

— patent publication US7094802B2, “PKB-3564 substance with neovascularization inhibitory activity” (Riken, priority 2001, dated 2006)
